Our source for the T/C values is PubChem BioAssay AID330 (DTP/NCI, 2004).

Values joined by “and” are separate entries in the source; they are usually repeats but may differ in a detail not shown here. Identical values can stand only once. Toxic doses and inconclusive results are not listed. Peptide text beside a SMILES is read from it.

For the assay, the system named is P388 leukemia ip, CD2F1 mice, survival T/C. Description: NCI In Vivo Anticancer Drug Screen. Data for tumor model P388 Leukemia (intraperitoneal) in CD2F1 (CDF1) mice. Particulars: endpoint: median survival time, higher = longer survival. A digest of the protocol:
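Mice carrying the transplanted tumor received test compound or vehicle. Survival was recorded in each group, and the value is the treated-group measurement divided by that of the vehicle-treated control group.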

Where [1] appears, read: dose: 50.0 mg/kg/injection, schedule: Q01DX005 (ip), vehicle: saline with Tween-80.
Where [2] appears, read: dose: 100.0 mg/kg/injection, schedule: Q01DX005 (ip), vehicle: saline with Tween-80.
The mark [3] stands for this setting: dose: 200.0 mg/kg/injection, schedule: Q01DX005 (ip), vehicle: saline with Tween-80.
[4] abbreviates: dose: 60.0 mg/kg/injection, schedule: Q01DX005 (ip), vehicle: saline with Tween-80.
Where [5] appears, read: dose: 120.0 mg/kg/injection, schedule: Q01DX005 (ip), vehicle: saline with Tween-80.
[6] abbreviates: dose: 240.0 mg/kg/injection, schedule: Q01DX005 (ip), vehicle: saline with Tween-80.
[7] abbreviates: dose: 50.0 mg/kg/injection, schedule: Q01DX009 (ip), vehicle: saline.
The mark [8] stands for this setting: dose: 100.0 mg/kg/injection, schedule: Q01DX009 (ip), vehicle: saline.
[9] abbreviates: dose: 200.0 mg/kg/injection, schedule: Q01DX009 (ip), vehicle: saline.

In the case of `CC(O)C(N)C(=O)NC(C(=O)NC(C(=O)O)C(C)O)C(C)O` (stereo not drawn) (H-Thr-Thr-Thr-OH; configuration not given here), the T/C was 104 % of control (dose: 50.0 mg/kg/injection, schedule: Q01DX005 (ip), vehicle: saline); 92 % of control (dose: 100.0 mg/kg/injection, schedule: Q01DX005 (ip), vehicle: saline); 104 % of control (dose: 200.0 mg/kg/injection, schedule: Q01DX005 (ip), vehicle: saline).
Turning to `COc1cccc(-c2nnc(-n3cc(-c4ccccc4)cc3N)s2)c1`, the T/C (dose: 50.0 mg/kg/injection, schedule: Q01DX001 (ip), vehicle: Klucel (hydroxypropylcellulose) (HPC)) is 104 % of control; the T/C (dose: 100.0 mg/kg/injection, schedule: Q01DX001 (ip), vehicle: Klucel (hydroxypropylcellulose) (HPC)) was 95 % of control; the T/C (dose: 200.0 mg/kg/injection, schedule: Q01DX001 (ip), vehicle: Klucel (hydroxypropylcellulose) (HPC)) was 89 % of control.
On to `Cc1ccc(C(=O)N=Nc2c(Cl)c(O)c3ccccc3c2O)cc1`, for which the T/C (dose: 50.0 mg/kg/injection, schedule: Q01DX005 (ip), vehicle: Klucel (hydroxypropylcellulose) (HPC)) is 103 % of control; the T/C (dose: 100.0 mg/kg/injection, schedule: Q01DX005 (ip), vehicle: Klucel (hydroxypropylcellulose) (HPC)) was 99 % of control; the T/C (dose: 200.0 mg/kg/injection, schedule: Q01DX005 (ip), vehicle: Klucel (hydroxypropylcellulose) (HPC)) was 103 % of control.
Take `Cc1nc2ccccc2c(=O)n1/N=C/c1ccccc1Cl`: the T/C runs as follows: under setting [1], 100 % of control; under setting [2], 99 % of control; under setting [3], 100 % of control.
For the compound `O=C1N(CCO)C2=CCCCC23c2[nH]c4ccccc4c2CCN13` (stereo not drawn), the T/C runs as follows: under setting [1], 104 % of control; under setting [2], 102 % of control; under setting [3], 102 % of control.
In the case of `BrCCCC1OCCO1`, the T/C under setting [4] is 100 % of control, the T/C under setting [5] was 100 % of control and the T/C under setting [6] was 104 % of control.
Take `OC(c1cc(-c2ccccc2)nc2ccc(Cl)cc12)C1CCCCN1` (stereo not drawn): the T/C is 97 % of control under setting [1], 90 % of control under setting [2] and 99 % of control under setting [3].
Consider `Nc1nc(N)c2nc(CCc3ccc(C(=O)NC(CCC(=O)O)C(=O)O)cc3)cnc2n1` (stereo not drawn), for which the T/C was 171 % of control (dose: 1.5 mg/kg/injection, schedule: Q01DX009 (ip), vehicle: sodium bicarbonate); 204 % of control (dose: 1.75 mg/kg/injection, schedule: Q01DX009 (ip), vehicle: sodium bicarbonate); 214 % of control (dose: 2.0 mg/kg/injection, schedule: Q01DX009 (ip), vehicle: sodium bicarbonate).
Take `O=C(O)C1C2C=CC(C2)C1c1c2ccc(=O)c(O)c-2oc2c(O)c(O)ccc12` (stereo not drawn): the T/C under setting [4] was 102 % of control, the T/C under setting [5] was 101 % of control and the T/C under setting [6] was 111 % of control.
Consider `CCCCC(CC)C1NC(C(=O)O)CS1` (stereo not drawn), for which the T/C is, setting by setting: (dose: 50.0 mg/kg/injection, schedule: Q01DX009 (ip), vehicle: suspension in saline) 96 % of control; (dose: 100.0 mg/kg/injection, schedule: Q01DX009 (ip), vehicle: suspension in saline) 87 % of control; (dose: 200.0 mg/kg/injection, schedule: Q01DX009 (ip), vehicle: suspension in saline) 96 % of control.
`O=C1CC(=O)OCCOCCOCCO1`: the T/C reads like this: under setting [7], 98 % of control; under setting [8], 117 % of control; under setting [9], 101 % of control.
`CCCCCCCCCc1cc(=O)[nH]c(=S)[nH]1`: the T/C (dose: 15.0 mg/kg/injection, schedule: Q01DX005 (ip), vehicle: Klucel (hydroxypropylcellulose) (HPC)) is 99 % of control; the T/C (dose: 30.0 mg/kg/injection, schedule: Q01DX005 (ip), vehicle: Klucel (hydroxypropylcellulose) (HPC)) was 102 % of control; the T/C (dose: 60.0 mg/kg/injection, schedule: Q01DX005 (ip), vehicle: Klucel (hydroxypropylcellulose) (HPC)) is 90 % of control and 93 % of control; the T/C (dose: 120.0 mg/kg/injection, schedule: Q01DX005 (ip), vehicle: Klucel (hydroxypropylcellulose) (HPC)) is 100 % of control.
Consider `CNCC(OC)c1ccc(O)c(O)c1` (stereo not drawn), for which the T/C runs as follows: under setting [8], 104 % of control and 107 % of control; under setting [9], 107 % of control and 118 % of control.
As to `CC(C)(CO)[C@@H](O)C(=O)NCCC(=O)O`, the T/C reads like this: under setting [7], 108 % of control; under setting [8], 113 % of control; under setting [9], 106 % of control.
Consider `COc1ccc(/C=N/Nc2nnc3c4ccccc4c4ncccc4c3n2)cc1`, for which the T/C (dose: 100.0 mg/kg/injection, schedule: Q01DX001 (ip), vehicle: saline with Tween-80) was 88 % of control; the T/C (dose: 200.0 mg/kg/injection, schedule: Q01DX001 (ip), vehicle: saline with Tween-80) is 95 % of control; the T/C (dose: 400.0 mg/kg/injection, schedule: Q01DX001 (ip), vehicle: saline with Tween-80) was 106 % of control.
`CN1C(=O)C(N=O)C(=O)N(C)C1=S`: the T/C reads like this: (dose: 6.25 mg/kg/injection, schedule: Q04DX002 (ip), vehicle: saline with Tween-80) 99 % of control; (dose: 12.5 mg/kg/injection, schedule: Q04DX002 (ip), vehicle: saline with Tween-80) 100 % of control; (dose: 25.0 mg/kg/injection, schedule: Q04DX002 (ip), vehicle: saline with Tween-80) 101 % of control.
As for `O=C(O)CCC(=O)OC(C1CO1)C(OC(=O)CCC(=O)O)C1CO1` (stereo not drawn), the T/C (dose: 2.5 mg/kg/injection, schedule: Q01DX009 (ip), vehicle: saline) is 90 % of control; the T/C (dose: 2.5 mg/kg/injection, schedule: Q01DX009 (ip), vehicle: sodium bicarbonate) is 103 % of control; the T/C (dose: 5.0 mg/kg/injection, schedule: Q01DX009 (ip), vehicle: saline) was 116 % of control; the T/C (dose: 5.0 mg/kg/injection, schedule: Q01DX009 (ip), vehicle: sodium bicarbonate) was 101 % of control; the T/C (dose: 10.0 mg/kg/injection, schedule: Q01DX009 (ip), vehicle: sodium bicarbonate) was 120 % of control; the T/C (dose: 20.0 mg/kg/injection, schedule: Q01DX009 (ip), vehicle: saline) is 153 % of control. The T/C runs as follows: (dose: 20.0 mg/kg/injection, schedule: Q01DX009 (ip), vehicle: sodium bicarbonate) 122 % of control; (dose: 40.0 mg/kg/injection, schedule: Q01DX009 (ip), vehicle: saline) 167 % of control; (dose: 80.0 mg/kg/injection, schedule: Q01DX009 (ip), vehicle: saline) 206 % of control; (dose: 80.0 mg/kg/injection, schedule: Q01DX009 (ip), vehicle: sodium bicarbonate) 169 % of control; (dose: 160.0 mg/kg/injection, schedule: Q01DX009 (ip), vehicle: sodium bicarbonate) 198 % of control; (dose: 320.0 mg/kg/injection, schedule: Q01DX009 (ip), vehicle: saline) 87 % of control. In addition, the T/C (dose: 320.0 mg/kg/injection, schedule: Q01DX009 (ip), vehicle: sodium bicarbonate) is 93 % of control.
With `CCOC(=O)Nc1cc(NC(c2ccccc2)c2ccccc2)c2[nH]cnc2n1`, the T/C is, setting by setting: (dose: 25.0 mg/kg/injection, schedule: Q01DX009 (ip), vehicle: saline with Tween-80) 88 % of control; (dose: 50.0 mg/kg/injection, schedule: Q01DX009 (ip), vehicle: saline with Tween-80) 88 % of control; (dose: 100.0 mg/kg/injection, schedule: Q01DX009 (ip), vehicle: saline with Tween-80) 117 % of control; (dose: 200.0 mg/kg/injection, schedule: Q01DX009 (ip), vehicle: saline with Tween-80) 96 % of control.
Consider `CCOC(=O)C1=C(c2ccccc2)C2OC1C(COC(=O)NC)=C2COC(=O)NC` (stereo not drawn), for which the T/C reads like this: (dose: 12.5 mg/kg/injection, schedule: Q01DX009 (ip), vehicle: distilled water + Tween-80) 96 % of control; (dose: 25.0 mg/kg/injection, schedule: Q01DX009 (ip), vehicle: distilled water + Tween-80) 93 % of control; (dose: 50.0 mg/kg/injection, schedule: Q01DX009 (ip), vehicle: distilled water + Tween-80) 87 % of control; (dose: 100.0 mg/kg/injection, schedule: Q01DX009 (ip), vehicle: distilled water + Tween-80) 87 % of control; (dose: 200.0 mg/kg/injection, schedule: Q01DX009 (ip), vehicle: distilled water + Tween-80) 99 % of control.
With `Cc1ccc(NC(=O)CCC(=O)C(C)C(=O)c2ccccc2)cc1C` (stereo not drawn), the T/C is 105 % of control under setting [4], 105 % of control under setting [5] and 109 % of control under setting [6].
